Assay results published in patent US9884812B2, “Use of DDX3X inhibitors for the treatment of pneumovirus infections” (priority 2014, dated 2018).
Like-named read-outs stand apart in the source and are kept apart here.

Key:
[1] = system: hRSV (strain A2); assay: Plaque inhibition assay, hRSV; type: cell-based, human respiratory syncytial virus; settings: for Plaque size relative to DMSO control: hRSV plaque assay; for IC50: human respiratory syncytial virus, read-out: IC50 (plaque number vs DMSO control)
Experimental: Example: Plaque inhibition assay
(§1) An identical assay procedure was carried out for hRSV (strain A2) bovine RS (strain Snook) and PVM (strain 15). Virus stocks were diluted 10 fold in GMEM (Invitrogen) so that the wells containing cells received sufficient virus to generate approximately 2000, 200 and 20 plaques per well.
The overlay medium also contained the compound to be tested at appropriate concentrations. Typically the 6 concentrations of the test compounds used were: 100 μM, 31.6 μM, 10 μM, 3.16 μM, 1 μM and 0.316 μM.
Stocks of the test compounds were prepared in DMSO (Sigma) (carrier). Each stock compound was diluted 1 in 200 in overlay medium to give dilutions stated above.
(§2) Cells of a standard cell line known to support pneumovirus replication (typically HEp2 or BSC1 cells) were grown in standard 12 well plates at 37° C. in an atmosphere of 5% (v/v) CO2 until confluent. Medium was aspirated from the cells and replaced with 200 μl aliquots of virus. Aliquots were prepared by diluting virus stocks 10-fold in GMEM (Invitrogen) as described above with no FCS. A mock (no virus) was also set up to test cell viability. The virus was incubated with the cells for 1 hour at 33° C. with gentle rocking every 5-10 minutes. The inocula were removed and 2 ml of overlay medium was added. Overlay medium was either test (plus compound) or control (medium alone or medium containing DMSO). The plates were incubated at 33° C. for 4-8 days to allow plaques to develop as indicated. A volume of 1 ml of additional overlay medium (containing the test compound as appropriate) was added every 3 days. All virus dilutions were carried out with each concentration of test compound, or treated as controls, and each was carried out in triplicate.
(§3) Following incubation, cells were fixed by addition of an equal volume of 4% (v/v) glutaraldehyde (Sigma) in PBS with further incubation for a minimum of 2 hours. The fixing solution was washed off under a slow flowing stream of water and 1 ml of crystal violet (0.075% w/v: Sigma) was added and left for 20 minutes at room temperature. The crystal violet was removed and the fixed cell monolayers washed. Plates were air dried. Plaques counts were recorded from wells with >20 and <200 in number. These numbers provide the most robust statistical reliability for viable plaque counts.
This experimental approach screens the ability of compounds to block the formation of plaques.

[2] = system: PVM (strain 15); assay: Plaque inhibition assay, PVM; type: cell-based, pneumonia virus of mice; settings: for IC50: murine pneumonia virus, PVM, HEp2 cells
Experimental: as §1, §2, §3
(§4) Compounds 1, 4 and 6 were also tested against bovine RSV and pneumonia virus of mice (PVM).
A full plaque assay was carried out for compound 4 using HEp2 cells, with assays of 5 days and 6 days after incubation.

[3] = system: HEp2 or BSC1 cells; assay: Toxicity to cells in the TCID50 screen (mock control); type: cell-based; settings: cellular RSV TCID50 assay tables
Experimental: This method provides a rapid approach to initially screen compounds and was developed as an increased number of compounds were synthesised. […] Virus was then added over 5 different half log dilutions starting at a multiplicity of infection of 0.02 plus mock control. Three dilutions of compound plus a DMSO control were screened per plate. […] Identical plate repeats for each compound dilution were fixed in subsequent days as indicated.

[4] = system: HEp2 cells; assay: MTT toxicity assay; type: cell-based; settings: compared with carrier controls
Experimental: All experiments shown were carried out in HEp2 cells. Cells were grown in 96 well plates overnight as previously described in 10% FCS medium to 95% confluence level. The medium was aspirated off and replaced with 200ul media with 2% FCS +/− compounds in DMSO carrier as indicated at an identical dilution series to that used in the plaque assays. 8 wells were used per compound/carrier alone dilution. An additional 2 rows of 8 cells were grown in medium alone for reference and subsequently 8 would be used as a cell death control as described below. Cells were incubated at 33° C. as indicated. If the incubation period exceeded 4 days the medium was replaced with the appropriate amount of fresh medium plus compound.
MTT assays were commenced 4 hours before the time period expired. Here 20 uL of MTT [(3-{4,5-dimethylthiazol-2-yl}-2,5-diphenyltetrazolium bromide)] solution (7.5 mg/ml in
PBS) was added. […] The cells were placed back in the incubator at 33° C. After 4 hours, 100 μL of a stop solution (50% formamide, 20% w/v SDS) was added and pipetted to dissolve the substrate. Plates were then left overnight to allow the bubbles to disappear and the OD was recorded at 595 nm. Following subtraction of background solution colour (cell death control), the optical density was expressed as a percentage compared to the DMSO control on each appropriate plate.

[5] = system: HEp2 cells; assay: Toxicity observed in plaque assay, HEp2 cells; type: cell-based
Experimental: as §2

[6] = system: Bovine RSV; assay: Plaque inhibition assay, bovine RSV; type: cell-based, bovine respiratory syncytial virus
Experimental: as §1, §2, §3, §4
The compounds were tested with a 6-day assay using HEp2 cells.

[7] = Solubility in cell medium; type: physicochemical; settings: for Solubility in cell medium: solution of ligand in DMSO (20 mM) diluted in cell media to 100 μM, scale from 'very poor' (almost insoluble) to 'very good' (freely soluble over extended periods at 4° C.)
[8] = system: BSC1 cells; assay: Toxicity observed in plaque assay, BSC1 cells; type: cell-based; settings: at 100 μM
Experimental: as §2

## CSc1cccc(NC(=O)Nc2ccccc2C)c1 [Compound 4, 1-(2-methylphenyl)-3-[3-(methylsulfanyl)phenyl]urea]
[1]
  Plaque size relative to DMSO control: significantly reduce the size of plaques
[1]; HEp-2, 120 h, hRSV, HEp2 cells, Day 5
  IC50: 4.1 µM
[1]; HEp-2, 144 h, hRSV, HEp2 cells, Day 6
  IC50: 8.5 µM
[1]; HEp-2, 168 h, hRSV, HEp2 cells, Day 7
  IC50: 15 µM
[2]; PVM plaque assay
  Plaque size: significantly reduce the size of plaques
[2]; HEp-2, 120 h, day 5
  IC50: 32 µM
[2]; HEp-2, 144 h, day 6
  IC50: 100 µM
[3]
  Toxicity: some toxicity at 100 μM
[4]
  Appearance of cell monolayers: appeared intact
[5]; at 10 μM
  Toxicity in plaque assay: No obvious toxicity
[5]; at 31.6 μM
  Toxicity in plaque assay: to some degree
[5]; at 100 μM
  Toxicity in plaque assay: showed toxicity
[6]; Bovine orthopneumovirus, HEp-2, 144 h, bovine RSV, 6-day assay, HEp2 cells, read-out: IC50
  IC50: 80 µM
[6]; bRSV plaque assay
  Plaque size: significantly reduce the size of plaques
[7]
  Solubility in cell medium: good

## CSc1cccc(NC(=O)NCCCOCCOCCOCCCNC(=O)Nc2cccc(SC)c2)c1 [Compound 36, 1-[3-(methylsulfanyl)phenyl]-3-[3-(2-{2-[3-({[3-(methylsulfanyl)-phenyl]carbamoyl}amino)propoxy]ethoxy}ethoxy)propyl]urea]
other
  melting point: 106 to 108 °C
[7]
  Solubility in cell medium: good

## Cc1ccccc1NC(=O)Nc1cccc(Cl)c1 [Compound 39, 1-(3-chlorophenyl)-3-(o-tolyl)urea]
[1]
  Plaque size relative to DMSO control: reduction in plaque numbers (as shown) and size
[1]; BSC-1, 96 h, hRSV, BSC1 cells, 4 day assay
  IC50: 16.5 µM
[3]
  Toxicity: Some toxicity at 100 μM
[8]
  Toxicity in plaque assay: some toxicity
[7]; at 100 μM
  Solubility behaviour in cell medium: moderately soluble
[7]
  Solubility in cell medium: Moderate at 100 μM

## Cc1ccccc1NC(=O)Nc1cccc(C(F)(F)F)c1 [Compound 40, 1-(o-tolyl)-3-(3-(trifluoromethyl)phenyl)urea]
[1]; hRSV, BSC1 cells, 4 day assay
  Inhibition of plaque formation: moderate inhibition
[3]
  Toxicity: Low
[8]
  Toxicity in plaque assay: low toxicity
[7]
  Solubility in cell medium: Good
